Experimental data taken from ChEMBL document CHEMBL1201862, “PubChem BioAssay data set” (2004).
Active and inactive are the calls of the source.

How the values were obtained:
[1] = target: T1, Voltage-gated N-type calcium channel alpha-1B subunit/Amyloid beta A4 precursor protein-binding family A member 1 (Homo sapiens, UniProt Q00975+Q02410); assay: disruptors of Mint-PDZ/N-type channel peptide interaction – biochemical, HTRF, set 2, SAR follow-up (AID 434980); format: functional
[2] = target: T1, Voltage-gated N-type calcium channel alpha-1B subunit/Amyloid beta A4 precursor protein-binding family A member 1; assay: disruptors of Mint-PDZ/N-type channel peptide interaction – biochemical, HTRF, SAR follow-up (AID 2489); format: functional
ORF 73 = ORF 73 (Human herpesvirus 8, UniProt O40947); assay: KSHV LANA DNA-binding disruption – biochemical, fluorescence polarization, cherry-picked samples, dose response (AID 504725); design: species or system Human gammaherpesvirus 8;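 further: fluorescence polarization of a labeled DNA duplex reporting LANA DNA binding; potency is for inhibitors that block LANA binding to the DNA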
[3] = target: Tyrosine-protein phosphatase non-receptor type 12 (Homo sapiens, UniProt Q05209); assay: SAR Selectivity Analysis of small molecule inhibitors of PEST using pCAP in a fluorescence assay. [Related pubchem assays (depositor defined):AID1779, AID1784, AID2135]; format: functional
[4] = target: T2, Dual specificity protein phosphatase 3 (Homo sapiens, UniProt P51452); assay: SAR VHR1 absorbance Assay for In Vitro dose response studies. [Related pubchem assays (depositor defined):AID1654, AID1661, AID1878, AID1992, AID2004]
[5] = target: T2, Dual specificity protein phosphatase 3; assay: SAR VHR1 Fluorescent Assay for In Vitro dose response studies. [Related pubchem assays (depositor defined):AID1654, AID1661, AID1878, AID1992, AID2004, AID2070, AID2085]; format: functional
[6] = target: T3, Tyrosine-protein phosphatase non-receptor type 22 (Homo sapiens, UniProt Q9Y2R2); assay: inhibition of lymphoid tyrosine phosphatase LYP – biochemical, pCAP fluorogenic substrate, fluorescence, set 3, SAR follow-up (AID 449727); format: functional
T3 sequence (Q9Y2R2 whole entry): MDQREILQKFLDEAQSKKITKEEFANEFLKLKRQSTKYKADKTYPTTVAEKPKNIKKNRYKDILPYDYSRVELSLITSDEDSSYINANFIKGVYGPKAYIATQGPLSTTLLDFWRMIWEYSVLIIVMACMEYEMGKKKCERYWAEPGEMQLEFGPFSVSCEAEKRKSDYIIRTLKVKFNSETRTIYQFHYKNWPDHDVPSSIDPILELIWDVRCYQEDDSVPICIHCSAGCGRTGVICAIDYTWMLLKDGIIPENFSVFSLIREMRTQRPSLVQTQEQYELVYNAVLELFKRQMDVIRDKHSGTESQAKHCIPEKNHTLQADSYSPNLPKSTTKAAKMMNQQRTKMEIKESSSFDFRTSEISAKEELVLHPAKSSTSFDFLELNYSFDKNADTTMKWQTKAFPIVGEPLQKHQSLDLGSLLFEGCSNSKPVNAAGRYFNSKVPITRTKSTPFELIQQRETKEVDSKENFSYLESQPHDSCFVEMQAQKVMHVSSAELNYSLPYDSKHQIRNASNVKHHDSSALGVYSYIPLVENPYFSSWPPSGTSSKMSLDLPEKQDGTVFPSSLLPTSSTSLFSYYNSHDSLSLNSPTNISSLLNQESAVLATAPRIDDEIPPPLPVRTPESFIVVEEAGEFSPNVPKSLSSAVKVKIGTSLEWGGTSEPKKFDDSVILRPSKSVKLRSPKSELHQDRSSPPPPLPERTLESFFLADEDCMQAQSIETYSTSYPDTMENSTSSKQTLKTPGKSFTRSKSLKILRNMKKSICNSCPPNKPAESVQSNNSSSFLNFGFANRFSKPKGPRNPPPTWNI

[7] = target: T3, Tyrosine-protein phosphatase non-receptor type 22; assay: SAR LYP1 Fluorescent Assay using OMFP substrate for In Vitro dose response studies - Set 3. [Related pubchem assays (depositor defined):AID1779, AID1784, AID2140, AID2686]; format: functional
[8] = target: T4, Tyrosine-protein phosphatase non-receptor type 7 (Homo sapiens, UniProt P35236); assay: redox-active compounds inhibiting HePTP phosphatase – biochemical, fluorescence, mechanism study (AID 2068); format: functional
T4 sequence (P35236 whole entry): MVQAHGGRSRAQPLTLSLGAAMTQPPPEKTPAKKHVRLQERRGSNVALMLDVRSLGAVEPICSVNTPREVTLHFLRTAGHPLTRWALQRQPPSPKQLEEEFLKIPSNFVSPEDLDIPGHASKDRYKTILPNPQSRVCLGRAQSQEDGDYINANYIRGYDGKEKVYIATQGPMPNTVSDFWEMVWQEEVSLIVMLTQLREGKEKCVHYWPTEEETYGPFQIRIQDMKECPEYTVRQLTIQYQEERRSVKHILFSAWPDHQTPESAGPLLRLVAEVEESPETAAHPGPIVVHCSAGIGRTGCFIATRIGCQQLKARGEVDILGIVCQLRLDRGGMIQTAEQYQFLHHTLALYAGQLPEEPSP

[9] = target: T5, Dual specificity protein phosphatase 6 (Rattus norvegicus, UniProt Q64346); format: functional;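 further: confirmatory in vitro dose-response testing of MKP-3 inhibition; recombinant His-tagged MKP-3 made in E. coli BL21 with OMFP substrate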
T5 sequence (Q64346 whole entry): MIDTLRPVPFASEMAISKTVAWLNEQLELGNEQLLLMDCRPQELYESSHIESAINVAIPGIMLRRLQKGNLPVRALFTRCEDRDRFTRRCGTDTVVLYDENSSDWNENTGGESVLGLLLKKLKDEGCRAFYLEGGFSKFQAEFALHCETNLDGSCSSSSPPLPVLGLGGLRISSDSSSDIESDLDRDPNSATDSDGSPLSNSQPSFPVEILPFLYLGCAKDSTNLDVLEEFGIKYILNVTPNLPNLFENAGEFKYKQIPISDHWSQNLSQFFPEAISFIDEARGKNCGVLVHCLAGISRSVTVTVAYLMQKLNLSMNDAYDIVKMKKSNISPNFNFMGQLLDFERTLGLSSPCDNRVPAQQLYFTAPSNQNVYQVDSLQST

[10] = target: T6, Short transient receptor potential channel 4 (Mus musculus, UniProt Q9QUQ5); assay: block of DAMGO-driven TRPC4 calcium entry – cell-based, HEK293 TRPC4/mu-opioid, Fluo-4 calcium, dose response (AID 434942); format: functional;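 further: potency of inhibitors blocking the TRPC4 calcium response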
T6 sequence (Q9QUQ5 whole entry): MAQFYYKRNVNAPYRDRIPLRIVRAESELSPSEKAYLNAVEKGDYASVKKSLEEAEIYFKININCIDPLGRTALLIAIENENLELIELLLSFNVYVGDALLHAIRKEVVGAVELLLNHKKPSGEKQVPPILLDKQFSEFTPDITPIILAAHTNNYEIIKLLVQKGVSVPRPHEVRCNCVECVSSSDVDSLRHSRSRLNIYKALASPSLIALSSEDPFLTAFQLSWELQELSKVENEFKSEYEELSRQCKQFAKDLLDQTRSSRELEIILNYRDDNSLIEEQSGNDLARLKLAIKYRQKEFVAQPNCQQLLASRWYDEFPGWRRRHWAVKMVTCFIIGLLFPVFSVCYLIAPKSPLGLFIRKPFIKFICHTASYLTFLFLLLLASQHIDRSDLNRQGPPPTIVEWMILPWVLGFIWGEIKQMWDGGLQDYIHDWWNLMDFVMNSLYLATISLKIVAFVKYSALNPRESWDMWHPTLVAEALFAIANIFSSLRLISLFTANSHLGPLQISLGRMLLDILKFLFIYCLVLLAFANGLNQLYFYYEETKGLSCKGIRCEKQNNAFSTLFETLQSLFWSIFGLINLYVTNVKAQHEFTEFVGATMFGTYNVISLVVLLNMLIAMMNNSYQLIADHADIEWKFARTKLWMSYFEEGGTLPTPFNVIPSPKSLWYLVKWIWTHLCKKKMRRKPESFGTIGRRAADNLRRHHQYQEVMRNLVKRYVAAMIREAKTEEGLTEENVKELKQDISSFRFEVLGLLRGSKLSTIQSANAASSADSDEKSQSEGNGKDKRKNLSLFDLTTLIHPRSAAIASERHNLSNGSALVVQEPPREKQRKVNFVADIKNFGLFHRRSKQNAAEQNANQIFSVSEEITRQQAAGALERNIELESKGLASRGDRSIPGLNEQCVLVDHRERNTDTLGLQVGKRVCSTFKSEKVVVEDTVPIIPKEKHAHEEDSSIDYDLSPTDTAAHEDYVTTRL

[11] = loss of viability in HepG2 cells – cell-based, CellTiter-Glo, cherry-picked, cytotoxicity control for Shn3 inhibitor project, dose response (AID 624134); format: functional
[12] = target: Endoplasmic reticulum aminopeptidase 1 (Homo sapiens, UniProt Q9NZ08); assay: inhibition of human ERAP1 enzyme activity – biochemical, cherry-pick, set 2, plate reader, dose response (AID 743314)
[13] = target: T7, Rac GTPase-activating protein 1 (Homo sapiens, UniProt Q9H0H5); assay: blockers of MgcRacGAP-driven Rac1 GTP hydrolysis – biochemical, ADP Hunter fluorescence, primary and confirmatory, confirmation (AID 624330); format: functional
T7 sequence (Q9H0H5 whole entry): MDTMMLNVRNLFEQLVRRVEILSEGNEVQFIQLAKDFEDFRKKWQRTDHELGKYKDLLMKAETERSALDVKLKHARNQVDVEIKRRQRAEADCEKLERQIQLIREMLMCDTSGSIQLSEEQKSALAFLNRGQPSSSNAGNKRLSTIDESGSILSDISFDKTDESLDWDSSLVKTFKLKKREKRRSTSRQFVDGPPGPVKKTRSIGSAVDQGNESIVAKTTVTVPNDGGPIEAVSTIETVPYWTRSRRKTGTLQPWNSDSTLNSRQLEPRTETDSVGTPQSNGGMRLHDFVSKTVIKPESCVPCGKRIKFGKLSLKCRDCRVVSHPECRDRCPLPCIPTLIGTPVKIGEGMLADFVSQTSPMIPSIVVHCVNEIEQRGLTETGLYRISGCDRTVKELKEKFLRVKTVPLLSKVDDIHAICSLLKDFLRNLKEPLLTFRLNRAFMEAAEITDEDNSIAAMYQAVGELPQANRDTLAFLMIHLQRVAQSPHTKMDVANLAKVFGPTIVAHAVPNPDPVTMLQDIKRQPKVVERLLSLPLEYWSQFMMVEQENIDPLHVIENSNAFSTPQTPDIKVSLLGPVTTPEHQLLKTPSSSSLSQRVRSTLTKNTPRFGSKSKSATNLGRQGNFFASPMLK

[14] = Cytotoxicity screening for potential Inhibitors of Bacterial Capsule Biogenesis. [Related pubchem assays (depositor defined):AID488970]; format: functional
Nonstructural protein 1 = Nonstructural protein 1 (Influenza A virus, UniProt Q194T2); format: functional, Influenza A virus (A/California/07/2009(H1N1))
[15] = inhibition of mouse IRAP aminopeptidase activity – biochemical, Leu-AMC fluorescence, cherry-picked samples, set 2, selectivity assay for ERAP1 modulator project, dose response (AID 743340)
[16] = viability loss in HeLa cells – cytotoxicity control for MgcRacGAP inhibitor project, dose response (AID 624300); format: functional
[17] = target: T8, DNA repair protein RAD52 homolog (Homo sapiens, UniProt P43351); format: functional, biochemical
T8 sequence (P43351 whole entry): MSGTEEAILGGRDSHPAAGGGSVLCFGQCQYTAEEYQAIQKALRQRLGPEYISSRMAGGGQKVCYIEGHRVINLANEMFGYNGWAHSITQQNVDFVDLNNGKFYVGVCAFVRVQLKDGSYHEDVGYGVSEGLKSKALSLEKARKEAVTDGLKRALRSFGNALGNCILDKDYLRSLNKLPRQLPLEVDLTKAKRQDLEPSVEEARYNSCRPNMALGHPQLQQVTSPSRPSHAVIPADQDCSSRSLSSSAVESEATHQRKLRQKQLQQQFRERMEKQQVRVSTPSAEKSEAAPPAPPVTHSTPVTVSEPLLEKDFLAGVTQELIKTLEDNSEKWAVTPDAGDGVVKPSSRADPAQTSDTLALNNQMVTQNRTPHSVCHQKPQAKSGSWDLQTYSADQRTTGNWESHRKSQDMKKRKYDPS

[18] = reduction of Shn3 3'UTR-driven luciferase in osteoblasts – cell-based, Clone20 osteoblasts, firefly luciferase, cherry-picked, dose response (AID 624132); format: functional;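 further: firefly luciferase luminescence from reporter carrying the Shn3 3'UTR in osteoblasts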
[19] = non-specific 3'UTR reporter inhibition in Clone20-Shn3RL – cell-based, Renilla luciferase, cherry-picked, counter-screen for Shn3 inhibitor project, dose response (AID 624133); format: functional
X-box-binding protein 1 = X-box-binding protein 1 (Homo sapiens, UniProt P17861); format: functional, Cricetulus griseus;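 further: confirmatory dose-response counter-screen serving a CHOP assay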
[20] = target: Protein phosphatase methylesterase 1 (Homo sapiens, UniProt Q9Y570); assay: endogenous PME-1 and serine hydrolase inhibition – cell lysate, mouse brain cytosol, FP-rhodamine, gel ABPP, selectivity assay for PME-1 inhibitor project, dose response, panel member PME-1 Assay Panel member description: Inhibition of endogenously expressed PME-1 (AID 2366)
[21] = target: Intestinal-type alkaline phosphatase (Homo sapiens, UniProt P09923); assay: Dose Response confirmation of uHTS hits from a small molecule inhibitors of human intestinal alkaline phosphatase via a luminescent assay. [Related pubchem assays (depositor defined):AID2544, AID2574]; format: functional
Intestinal-type alkaline phosphatase, sequence (P09923 whole entry): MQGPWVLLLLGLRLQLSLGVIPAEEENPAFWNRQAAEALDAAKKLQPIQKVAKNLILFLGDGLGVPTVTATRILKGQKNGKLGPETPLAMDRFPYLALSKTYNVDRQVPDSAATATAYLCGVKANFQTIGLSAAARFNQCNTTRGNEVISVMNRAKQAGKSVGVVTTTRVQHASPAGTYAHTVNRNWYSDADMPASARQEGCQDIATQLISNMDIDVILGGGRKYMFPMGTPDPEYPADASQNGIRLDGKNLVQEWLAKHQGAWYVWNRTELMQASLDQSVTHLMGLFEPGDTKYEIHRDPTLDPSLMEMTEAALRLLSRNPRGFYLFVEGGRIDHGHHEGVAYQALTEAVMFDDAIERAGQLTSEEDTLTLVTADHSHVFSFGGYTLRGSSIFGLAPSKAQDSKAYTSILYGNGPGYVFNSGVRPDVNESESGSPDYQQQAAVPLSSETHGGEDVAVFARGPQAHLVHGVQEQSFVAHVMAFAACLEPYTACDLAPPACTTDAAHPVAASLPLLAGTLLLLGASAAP

T1 sequence (Q00975 whole entry): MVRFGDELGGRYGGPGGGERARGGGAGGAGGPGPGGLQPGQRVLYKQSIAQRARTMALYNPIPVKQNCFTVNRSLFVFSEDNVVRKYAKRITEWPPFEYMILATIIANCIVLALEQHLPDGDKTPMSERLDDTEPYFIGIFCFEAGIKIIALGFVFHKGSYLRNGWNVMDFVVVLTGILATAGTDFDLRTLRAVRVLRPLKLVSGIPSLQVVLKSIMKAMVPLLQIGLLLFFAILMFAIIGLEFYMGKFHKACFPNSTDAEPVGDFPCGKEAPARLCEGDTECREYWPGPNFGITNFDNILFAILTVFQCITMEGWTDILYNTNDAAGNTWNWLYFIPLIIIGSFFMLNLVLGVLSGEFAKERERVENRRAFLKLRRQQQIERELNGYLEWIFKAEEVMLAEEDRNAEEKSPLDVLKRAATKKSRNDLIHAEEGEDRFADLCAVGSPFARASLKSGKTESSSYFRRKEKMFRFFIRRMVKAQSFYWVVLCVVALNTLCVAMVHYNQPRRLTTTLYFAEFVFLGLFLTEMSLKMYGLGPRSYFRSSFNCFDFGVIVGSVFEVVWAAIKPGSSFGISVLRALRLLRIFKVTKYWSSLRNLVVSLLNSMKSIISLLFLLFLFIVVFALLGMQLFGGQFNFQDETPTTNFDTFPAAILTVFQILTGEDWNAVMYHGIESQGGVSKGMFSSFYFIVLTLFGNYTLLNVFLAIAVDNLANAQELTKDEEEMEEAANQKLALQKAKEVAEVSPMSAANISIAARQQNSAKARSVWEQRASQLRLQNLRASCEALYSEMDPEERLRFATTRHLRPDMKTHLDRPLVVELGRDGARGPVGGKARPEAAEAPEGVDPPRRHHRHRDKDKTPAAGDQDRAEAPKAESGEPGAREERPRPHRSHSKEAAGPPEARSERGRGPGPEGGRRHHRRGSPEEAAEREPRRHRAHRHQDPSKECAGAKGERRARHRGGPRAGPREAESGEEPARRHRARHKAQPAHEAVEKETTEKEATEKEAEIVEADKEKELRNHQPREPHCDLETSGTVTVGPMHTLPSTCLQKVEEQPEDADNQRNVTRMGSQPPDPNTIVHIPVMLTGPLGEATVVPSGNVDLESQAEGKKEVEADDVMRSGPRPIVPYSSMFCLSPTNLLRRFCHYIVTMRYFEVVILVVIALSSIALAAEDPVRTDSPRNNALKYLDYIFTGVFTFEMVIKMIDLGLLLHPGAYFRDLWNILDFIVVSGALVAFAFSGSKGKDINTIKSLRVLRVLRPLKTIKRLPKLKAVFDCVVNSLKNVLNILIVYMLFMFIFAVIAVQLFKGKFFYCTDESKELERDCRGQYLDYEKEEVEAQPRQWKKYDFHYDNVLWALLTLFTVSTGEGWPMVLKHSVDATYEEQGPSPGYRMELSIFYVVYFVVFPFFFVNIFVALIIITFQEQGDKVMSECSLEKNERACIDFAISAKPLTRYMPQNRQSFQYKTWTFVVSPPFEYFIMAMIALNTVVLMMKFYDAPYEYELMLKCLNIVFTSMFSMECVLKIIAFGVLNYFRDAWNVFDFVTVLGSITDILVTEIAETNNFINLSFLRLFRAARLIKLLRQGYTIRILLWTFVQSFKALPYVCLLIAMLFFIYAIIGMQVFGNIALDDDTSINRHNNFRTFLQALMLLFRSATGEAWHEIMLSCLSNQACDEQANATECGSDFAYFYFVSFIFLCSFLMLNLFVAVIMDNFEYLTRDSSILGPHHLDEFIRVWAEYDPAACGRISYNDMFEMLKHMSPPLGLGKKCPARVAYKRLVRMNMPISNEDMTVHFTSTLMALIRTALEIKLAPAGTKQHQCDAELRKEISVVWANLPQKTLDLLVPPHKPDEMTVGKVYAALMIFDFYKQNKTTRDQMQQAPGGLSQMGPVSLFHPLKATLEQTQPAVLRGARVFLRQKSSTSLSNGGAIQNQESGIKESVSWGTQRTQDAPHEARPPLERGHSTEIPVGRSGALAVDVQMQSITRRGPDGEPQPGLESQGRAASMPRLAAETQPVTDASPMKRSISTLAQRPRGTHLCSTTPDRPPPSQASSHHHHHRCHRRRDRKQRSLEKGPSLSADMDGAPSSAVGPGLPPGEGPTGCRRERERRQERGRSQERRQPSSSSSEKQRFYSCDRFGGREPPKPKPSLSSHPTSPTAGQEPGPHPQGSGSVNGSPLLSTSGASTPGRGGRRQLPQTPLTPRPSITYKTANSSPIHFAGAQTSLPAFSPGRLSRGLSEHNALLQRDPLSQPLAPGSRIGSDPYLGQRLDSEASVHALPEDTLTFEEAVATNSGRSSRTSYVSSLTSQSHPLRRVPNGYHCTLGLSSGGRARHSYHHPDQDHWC
T1 sequence (Q02410 whole entry): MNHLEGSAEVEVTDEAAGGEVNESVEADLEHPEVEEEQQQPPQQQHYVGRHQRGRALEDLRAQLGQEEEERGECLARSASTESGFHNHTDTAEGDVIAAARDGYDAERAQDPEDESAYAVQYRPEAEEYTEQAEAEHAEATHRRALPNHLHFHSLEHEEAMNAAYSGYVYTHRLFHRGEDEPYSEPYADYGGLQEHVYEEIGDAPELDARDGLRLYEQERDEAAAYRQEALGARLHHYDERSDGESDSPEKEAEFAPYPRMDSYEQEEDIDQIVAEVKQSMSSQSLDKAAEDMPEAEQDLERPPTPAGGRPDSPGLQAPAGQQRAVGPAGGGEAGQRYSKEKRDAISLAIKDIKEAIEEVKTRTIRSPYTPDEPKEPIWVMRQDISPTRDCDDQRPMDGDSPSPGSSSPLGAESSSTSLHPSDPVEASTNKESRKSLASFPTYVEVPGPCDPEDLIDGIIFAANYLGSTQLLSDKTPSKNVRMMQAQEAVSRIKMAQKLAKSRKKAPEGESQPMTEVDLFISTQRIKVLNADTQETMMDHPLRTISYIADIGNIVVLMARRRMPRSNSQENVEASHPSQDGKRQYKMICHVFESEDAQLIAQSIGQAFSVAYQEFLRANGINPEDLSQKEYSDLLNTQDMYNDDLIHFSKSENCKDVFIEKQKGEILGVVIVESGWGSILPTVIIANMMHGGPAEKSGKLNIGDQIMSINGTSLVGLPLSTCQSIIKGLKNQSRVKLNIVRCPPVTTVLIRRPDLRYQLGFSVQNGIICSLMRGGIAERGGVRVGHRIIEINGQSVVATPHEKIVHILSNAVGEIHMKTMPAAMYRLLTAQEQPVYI
T2 sequence (P51452 whole entry): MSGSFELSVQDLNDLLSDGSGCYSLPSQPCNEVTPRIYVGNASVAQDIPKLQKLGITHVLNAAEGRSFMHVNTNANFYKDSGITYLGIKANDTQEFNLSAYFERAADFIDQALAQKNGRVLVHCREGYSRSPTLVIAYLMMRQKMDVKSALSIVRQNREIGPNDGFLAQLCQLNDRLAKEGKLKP
Protein phosphatase methylesterase 1, sequence (Q9Y570 whole entry): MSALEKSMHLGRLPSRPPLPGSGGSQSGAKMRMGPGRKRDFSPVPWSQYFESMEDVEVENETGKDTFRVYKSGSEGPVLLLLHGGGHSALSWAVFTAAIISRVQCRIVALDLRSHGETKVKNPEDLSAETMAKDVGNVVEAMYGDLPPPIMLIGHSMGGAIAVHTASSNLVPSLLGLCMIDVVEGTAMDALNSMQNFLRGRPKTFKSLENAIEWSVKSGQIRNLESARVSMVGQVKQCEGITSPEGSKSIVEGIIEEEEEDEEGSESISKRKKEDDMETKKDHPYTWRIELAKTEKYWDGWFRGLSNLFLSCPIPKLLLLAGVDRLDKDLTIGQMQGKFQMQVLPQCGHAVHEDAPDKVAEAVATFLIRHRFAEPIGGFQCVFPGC
X-box-binding protein 1, sequence (P17861 whole entry): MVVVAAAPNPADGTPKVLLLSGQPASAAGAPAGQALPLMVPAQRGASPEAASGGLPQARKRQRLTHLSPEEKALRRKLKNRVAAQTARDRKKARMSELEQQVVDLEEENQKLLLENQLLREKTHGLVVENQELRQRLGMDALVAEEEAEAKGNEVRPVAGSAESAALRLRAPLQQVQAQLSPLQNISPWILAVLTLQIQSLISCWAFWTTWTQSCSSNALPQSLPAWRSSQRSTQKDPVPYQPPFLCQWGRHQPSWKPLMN
Nonstructural protein 1, sequence (Q194T2 whole entry): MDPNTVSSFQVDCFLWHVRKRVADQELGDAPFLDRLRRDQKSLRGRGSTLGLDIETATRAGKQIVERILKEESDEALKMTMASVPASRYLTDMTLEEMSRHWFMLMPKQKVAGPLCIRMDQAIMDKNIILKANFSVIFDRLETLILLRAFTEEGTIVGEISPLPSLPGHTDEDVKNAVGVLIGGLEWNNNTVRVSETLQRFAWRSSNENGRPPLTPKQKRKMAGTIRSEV

## CC12C=CC(C)(O1)C1C(=O)N(c3ccc(Cl)cc3)C(=O)C12 (centres undefined)
[1]
  IC50: > 56.8 µM (inactive)
[2]
  IC50: > 56.8 µM (inactive)

## CCOc1ccc(-n2c(Cc3cc(O)nc(O)n3)nnc2SCc2cccnc2)cc1
ORF 73
  AC50: 76.4 µM (active)

## Cc1cc(OCC(=O)O)ccc1S(C)(=O)=O
[3]
  IC50: > 100 µM (inactive)
[4]
  IC50: > 100 µM (inactive)
[5]
  IC50: > 99 µM (inactive)
[6]
  IC50: > 100 µM (inactive)
[7]
  IC50: > 100 µM (inactive)
[8]
  IC50: > 100 µM (inactive)
[9]
  IC50: > 99 µM (inactive)

## CCCCn1c2ccccc2c2nnc(SCCN3CCCCC3)nc21
[10]
  EC50: 6.68 µM (active)

## CCN(CCCl)c1cc(CN(C)C)cc(NC(=O)c2ccc(C(=O)Nc3cc(CN(C)C)cc(N(CC)CCCl)c3)cc2)c1
[11]
  AC50: 1.25 µM (active)
[12]
  AC50: 4.85 µM (active)
[13]
  IC50: 126 µM (active)
[14]
  CC50: < 380 nM (active)
Nonstructural protein 1
  IC50: 7.89 µM (active)
[15]
  AC50: 19.4 µM (active)
[16]
  CC50: 6.78 µM (active)
[17]
  AC50: 1.71 µM (active)
[18]
  AC50: 2.65 µM (active)
[19]
  AC50: 13.1 µM (active)

## Cc1csc(NC(=O)CSc2nnc3c4ccccc4nc(C(C)(C)C)n23)n1
X-box-binding protein 1
  Absolute IC50 (XBP1): 10 µM

## N#CC(C#N)=Cc1cccn1S(=O)(=O)c1ccccc1
[20]
  IC50: 20 µM (inactive)

## COC(=O)CN1C(=O)C(O)(CC(=O)c2ccc(C)cc2)c2ccccc21 (centres undefined)
[21]
  IC50: > 100 µM (inactive)
